# Data published in PubChem BioAssay (NCI).
#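 96-well plates; 48 h exposure; 5 concentrations. Endpoints by linear interpolation between flanking doses. Not reached: highest tested concentration assigned. GI50: concentration for 50% inhibition of growth. The concentration for full growth arrest is given as TGI.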
# Tests used:
# Assay in all cases: NCI anticancer screen, dose series, 48 h
# 786-0 renal = system: 786-0 renal
# A498 renal = system: A498 renal
# A549 NSCLC = system: A549 NSCLC
# ACHN renal = system: ACHN renal
# BT-549 breast = system: BT-549 breast
# CAKI-1 renal = system: CAKI-1 renal
# CCRF-CEM leukemia = system: CCRF-CEM leukemia
# COLO 205 colon = system: COLO 205 colon
# DU-145 prostate = system: DU-145 prostate
# EKVX NSCLC = system: EKVX NSCLC
# HCC-2998 colon = system: HCC-2998 colon
# HCT-116 colon = system: HCT-116 colon
# HCT-15 colon = system: HCT-15 colon
# HL-60(TB) leukemia = system: HL-60(TB) leukemia
# HOP-62 NSCLC = system: HOP-62 NSCLC
# HOP-92 NSCLC = system: HOP-92 NSCLC
# HS 578T breast = system: HS 578T breast
# HT29 colon = system: HT29 colon
# IGROV1 ovarian = system: IGROV1 ovarian
# K-562 leukemia = system: K-562 leukemia
# KM12 colon = system: KM12 colon
# LOX IMVI melanoma = system: LOX IMVI melanoma
# M14 melanoma = system: M14 melanoma
# MALME-3M melanoma = system: MALME-3M melanoma
# MCF7 breast = system: MCF7 breast
# MDA-MB-231 breast = system: MDA-MB-231 breast
# MDA-MB-435 = system: MDA-MB-435
# MOLT-4 leukemia = system: MOLT-4 leukemia
# NCI-H226 lung = system: NCI-H226 lung
# NCI-H23 lung = system: NCI-H23 lung
# NCI-H460 lung = system: NCI-H460 lung
# NCI-H522 lung = system: NCI-H522 lung
# NCI/ADR-RES ovarian = system: NCI/ADR-RES ovarian
# OVCAR-3 ovarian = system: OVCAR-3 ovarian
# OVCAR-4 ovarian = system: OVCAR-4 ovarian
# OVCAR-5 ovarian = system: OVCAR-5 ovarian
# OVCAR-8 ovarian = system: OVCAR-8 ovarian
# PC-3 prostate = system: PC-3 prostate
# RPMI-8226 leukemia = system: RPMI-8226 leukemia
# SF-268 CNS = system: SF-268 CNS
# SF-295 CNS = system: SF-295 CNS
# SF-539 CNS = system: SF-539 CNS
# SK-MEL-2 melanoma = system: SK-MEL-2 melanoma
# SK-MEL-28 melanoma = system: SK-MEL-28 melanoma
# SK-MEL-5 melanoma = system: SK-MEL-5 melanoma
# SK-OV-3 ovarian = system: SK-OV-3 ovarian
# SN12C renal = system: SN12C renal
# SNB-19 CNS = system: SNB-19 CNS
# SNB-75 CNS = system: SNB-75 CNS
# SR leukemia = system: SR leukemia
# SW-620 colon = system: SW-620 colon
# T-47D breast = system: T-47D breast
# TK-10 renal = system: TK-10 renal
# U251 CNS = system: U251 CNS
# UACC-257 melanoma = system: UACC-257 melanoma
# UACC-62 melanoma = system: UACC-62 melanoma
# UO-31 renal = system: UO-31 renal
# RXF 393 renal = system: RXF 393 renal
smiles,measurement,setting,value
Cc1cc2c(cc1Cl)SC1=NN(C)S(=O)N1S2(=O)=O (stereo unspecified),GI50,786-0 renal,> 100 µM
same,TGI,786-0 renal,> 100 µM
same,GI50,A498 renal,99.5 µM
same,TGI,A498 renal,> 100 µM
same,GI50,A549 NSCLC,> 100 µM
same,TGI,A549 NSCLC,> 100 µM
same,GI50,ACHN renal,> 100 µM
same,TGI,ACHN renal,> 100 µM
same,GI50,BT-549 breast,> 100 µM
same,TGI,BT-549 breast,> 100 µM
same,GI50,CAKI-1 renal,> 100 µM
same,TGI,CAKI-1 renal,> 100 µM
same,GI50,CCRF-CEM leukemia,> 100 µM
same,TGI,CCRF-CEM leukemia,> 100 µM
same,GI50,COLO 205 colon,> 100 µM
same,TGI,COLO 205 colon,> 100 µM
same,GI50,DU-145 prostate,> 100 µM
same,TGI,DU-145 prostate,> 100 µM
same,GI50,EKVX NSCLC,> 100 µM
same,TGI,EKVX NSCLC,> 100 µM
same,GI50,HCC-2998 colon,> 100 µM
same,TGI,HCC-2998 colon,> 100 µM
same,GI50,HCT-116 colon,> 100 µM
same,TGI,HCT-116 colon,> 100 µM
same,GI50,HCT-15 colon,> 100 µM
same,TGI,HCT-15 colon,> 100 µM
same,GI50,HL-60(TB) leukemia,> 100 µM
same,TGI,HL-60(TB) leukemia,> 100 µM
same,GI50,HOP-62 NSCLC,> 100 µM
same,TGI,HOP-62 NSCLC,> 100 µM
same,GI50,HOP-92 NSCLC,25.5 µM
same,TGI,HOP-92 NSCLC,87 µM
same,GI50,HS 578T breast,> 100 µM
same,TGI,HS 578T breast,> 100 µM
same,GI50,HT29 colon,> 100 µM
same,TGI,HT29 colon,> 100 µM
same,GI50,IGROV1 ovarian,> 100 µM
same,TGI,IGROV1 ovarian,> 100 µM
same,GI50,K-562 leukemia,> 100 µM
same,TGI,K-562 leukemia,> 100 µM
same,GI50,KM12 colon,> 100 µM
same,TGI,KM12 colon,> 100 µM
same,GI50,LOX IMVI melanoma,> 100 µM
same,TGI,LOX IMVI melanoma,> 100 µM
same,GI50,M14 melanoma,> 100 µM
same,TGI,M14 melanoma,> 100 µM
same,GI50,MALME-3M melanoma,> 100 µM
same,TGI,MALME-3M melanoma,> 100 µM
same,GI50,MCF7 breast,> 100 µM
same,TGI,MCF7 breast,> 100 µM
same,GI50,MDA-MB-231 breast,> 100 µM
same,TGI,MDA-MB-231 breast,> 100 µM
same,GI50,MDA-MB-435,> 100 µM
same,TGI,MDA-MB-435,> 100 µM
same,GI50,MOLT-4 leukemia,> 100 µM
same,TGI,MOLT-4 leukemia,> 100 µM
same,GI50,NCI-H226 lung,> 100 µM
same,TGI,NCI-H226 lung,> 100 µM
same,GI50,NCI-H23 lung,> 100 µM
same,TGI,NCI-H23 lung,> 100 µM
same,GI50,NCI-H460 lung,> 100 µM
same,TGI,NCI-H460 lung,> 100 µM
same,GI50,NCI-H522 lung,> 100 µM
same,TGI,NCI-H522 lung,> 100 µM
same,GI50,NCI/ADR-RES ovarian,> 100 µM
same,TGI,NCI/ADR-RES ovarian,> 100 µM
same,GI50,OVCAR-3 ovarian,> 100 µM
same,TGI,OVCAR-3 ovarian,> 100 µM
same,GI50,OVCAR-4 ovarian,> 100 µM
same,TGI,OVCAR-4 ovarian,> 100 µM
same,GI50,OVCAR-5 ovarian,> 100 µM
same,TGI,OVCAR-5 ovarian,> 100 µM
same,GI50,OVCAR-8 ovarian,> 100 µM
same,TGI,OVCAR-8 ovarian,> 100 µM
same,GI50,PC-3 prostate,> 100 µM
same,TGI,PC-3 prostate,> 100 µM
same,GI50,RPMI-8226 leukemia,> 100 µM
same,TGI,RPMI-8226 leukemia,> 100 µM
same,GI50,SF-268 CNS,> 100 µM
same,TGI,SF-268 CNS,> 100 µM
same,GI50,SF-295 CNS,> 100 µM
same,TGI,SF-295 CNS,> 100 µM
same,GI50,SF-539 CNS,> 100 µM
same,TGI,SF-539 CNS,> 100 µM
same,GI50,SK-MEL-2 melanoma,> 100 µM
same,TGI,SK-MEL-2 melanoma,> 100 µM
same,GI50,SK-MEL-28 melanoma,> 100 µM
same,TGI,SK-MEL-28 melanoma,> 100 µM
same,GI50,SK-MEL-5 melanoma,> 100 µM
same,TGI,SK-MEL-5 melanoma,> 100 µM
same,GI50,SK-OV-3 ovarian,> 100 µM
same,TGI,SK-OV-3 ovarian,> 100 µM
same,GI50,SN12C renal,> 100 µM
same,TGI,SN12C renal,> 100 µM
same,GI50,SNB-19 CNS,> 100 µM
same,TGI,SNB-19 CNS,> 100 µM
same,GI50,SNB-75 CNS,58.7 µM
same,TGI,SNB-75 CNS,> 100 µM
same,GI50,SR leukemia,> 100 µM
same,TGI,SR leukemia,> 100 µM
same,GI50,SW-620 colon,> 100 µM
same,TGI,SW-620 colon,> 100 µM
same,GI50,T-47D breast,> 100 µM
same,TGI,T-47D breast,> 100 µM
same,GI50,TK-10 renal,> 100 µM
same,TGI,TK-10 renal,> 100 µM
same,GI50,U251 CNS,> 100 µM
same,TGI,U251 CNS,> 100 µM
same,GI50,UACC-257 melanoma,> 100 µM
same,TGI,UACC-257 melanoma,> 100 µM
same,GI50,UACC-62 melanoma,88.4 µM
same,TGI,UACC-62 melanoma,> 100 µM
same,GI50,UO-31 renal,65.9 µM
same,TGI,UO-31 renal,> 100 µM
CCCCC(=O)c1ccc2ccccc2c1O,TGI,786-0 renal,> 100 µM
same,TGI,A498 renal,> 100 µM
same,TGI,ACHN renal,> 100 µM
same,TGI,BT-549 breast,> 100 µM
same,TGI,CAKI-1 renal,> 100 µM
same,TGI,CCRF-CEM leukemia,> 100 µM
same,TGI,COLO 205 colon,> 100 µM
same,TGI,DU-145 prostate,> 100 µM
same,TGI,EKVX NSCLC,> 100 µM
same,TGI,HCC-2998 colon,> 100 µM
same,TGI,HCT-116 colon,> 100 µM
same,TGI,HCT-15 colon,> 100 µM
same,TGI,HL-60(TB) leukemia,> 100 µM
same,TGI,HOP-62 NSCLC,> 100 µM
same,TGI,HOP-92 NSCLC,> 100 µM
same,TGI,HS 578T breast,> 100 µM
same,TGI,HT29 colon,> 100 µM
same,TGI,IGROV1 ovarian,> 100 µM
same,TGI,K-562 leukemia,> 100 µM
same,TGI,KM12 colon,> 100 µM
same,TGI,LOX IMVI melanoma,> 100 µM
same,TGI,M14 melanoma,> 100 µM
same,TGI,MCF7 breast,> 100 µM
same,TGI,MDA-MB-231 breast,> 100 µM
same,TGI,MDA-MB-435,> 100 µM
same,TGI,MOLT-4 leukemia,> 100 µM
same,TGI,NCI-H226 lung,> 100 µM
same,TGI,NCI-H23 lung,> 100 µM
same,TGI,NCI-H460 lung,> 100 µM
same,TGI,NCI/ADR-RES ovarian,> 100 µM
same,TGI,OVCAR-4 ovarian,> 100 µM
same,TGI,OVCAR-8 ovarian,> 100 µM
same,TGI,PC-3 prostate,> 100 µM
same,TGI,RPMI-8226 leukemia,> 100 µM
same,TGI,RXF 393 renal,> 100 µM
same,TGI,SF-268 CNS,> 100 µM
same,TGI,SF-295 CNS,> 100 µM
same,TGI,SF-539 CNS,> 100 µM
same,TGI,SK-MEL-2 melanoma,> 100 µM
same,TGI,SK-MEL-28 melanoma,> 100 µM
same,TGI,SK-MEL-5 melanoma,> 100 µM
same,TGI,SK-OV-3 ovarian,> 100 µM
same,TGI,SNB-19 CNS,> 100 µM
same,TGI,SNB-75 CNS,> 100 µM
same,TGI,SR leukemia,> 100 µM
same,TGI,SW-620 colon,> 100 µM
same,TGI,T-47D breast,> 100 µM
same,TGI,TK-10 renal,> 100 µM
same,TGI,U251 CNS,> 100 µM
same,TGI,UACC-257 melanoma,> 100 µM
same,TGI,UACC-62 melanoma,> 100 µM
same,TGI,UO-31 renal,> 100 µM
